Laboratory results published in patent US20030050248A1 (priority 2000, published 2003).
In brackets after ≈: the same amount, converted by molar mass. Ends that are not written are not given here. Peptide text beside a SMILES is read from it. * marks the point of attachment. Fmoc = O=C(OCC1c2ccccc2-c2ccccc21)*; X1 = O=C(Sc1ccccc1)*

Key:
RNAIII [1] = format: cell-based, S. aureus
S. aureus [2] = tested on: S. aureus
S. epidermidis (51625) = format: cell-based
S. haemolyticus = format: cell-based
S. aureus [3] = format: cell-based
RNAIII [4] = settings: reported by Balaban et al., 1998; cited from earlier work
S. aureus [5] = experiment: Mouse model, Staph injected IP 20 min prior to drug injection (IP); format: in vivo, mice; settings: for % Survival at 24 hr.: 20 min after Staph; for Number of mice that survived at 24 hours post-injection relative to vehicle (in words): VIF-1 20 or 15 mg/kg, FTB 10 mg/kg
Experimental: (§1) The assay was carried out by injecting a fixed amount of a S. aureus culture, typically containing from about 5×10^9 cells from an early exponential growth stage culture, by intraperitoneal (IP) injection into mice, based on the method described by Thakker et al., 1998.
In another approach, S. aureus was injected IP 20 minutes prior to IP injection of VIF-1 or FTB.
The commonly used anti-Staphylococcal antibiotics, methicillin and vancomycin, were tested in this model.

S. aureus [6] = experiment: Mouse model, Staph mixed with drug prior to IP injection; format: in vivo, mice; settings: for % Survival at 24 hr.: mixed with Staph prior to IP injection; for Number of mice that survived at 24 hours post-injection (in words): VIF-1 3 or 15 mg/kg, FTB 1, 2 or 5 mg/kg
Experimental: as §1
In one study, the S. aureus was mixed with VIF-1 or FTB, prior to IP injection.

Compound: O=C(NC1(C(=O)O)CCCCC1)OCC1c2ccccc2-c2ccccc21 [Reference #86, Fmoc-1-amino-1-cyclohexane carboxylic acid]
- Inhibition of RNA III activation (RNAIII [1]): 3.0 (3) μg/ml
- Inhibition of α-Hemolysin production (S. aureus [2]): 2.1 (3) μg/ml
- Inhibition of α-toxin production (in words) (S. aureus [2]): inhibited α-toxin production
- IC50, α-toxin production (S. warneri): 0.6 µg/mL (≈ 1.64 µM)
- IC50, α-toxin production (S. epidermidis (51625)): 0.4 µg/mL (≈ 1.09 µM)
- IC50, α-toxin production (S. haemolyticus): 0.6 µg/mL (≈ 1.64 µM)
- Inhibition of TSST-1 (S. aureus [3]): 10.0 µg/mL

Compound: O=C(O)[C@@H]1CC[C@H](c2ccccc2)N1C(=O)OCC1c2ccccc2-c2ccccc21 [Reference #113, (2S,5R)-Fmoc-5-phenyl-pyrrolidine-2-carboxylic acid]
- Inhibition of RNA III activation (RNAIII [1]): 3.0 (1) μg/ml
- IC50, α-toxin production (S. aureus [2]): 0.9 µg/mL (≈ 2.18 µM)
- Inhibition of α-Hemolysin production (S. aureus [2]): 1.7 (5) μg/ml
- Inhibition of α-toxin production (in words) (S. aureus [2]): inhibited α-toxin production
- IC50, α-toxin production (S. warneri): 0.6 µg/mL (≈ 1.45 µM)
- IC50, α-toxin production (S. epidermidis (51625)): 0.5 µg/mL (≈ 1.21 µM)
- IC50, α-toxin production (S. haemolyticus): 0.7 µg/mL (≈ 1.69 µM)
- Inhibition of TSST-1 (S. aureus [3]): 6.0 µg/mL

Compound: ProCysThrAsnPhe (PCTNF; printed: ProCysThrAsnPhe) [peptide 1]
- Inhibition of induction of RNAIII (in words) (RNAIII [4]): inactive

Compound: O=C(O)[C@H]1c2ccccc2CCN1C(=O)OCC1c2ccccc2-c2ccccc21 [Reference #16]
- Inhibition of RNA III activation (RNAIII [1]): 3.5 (3) μg/ml
- Inhibition of α-Hemolysin production (S. aureus [2]): 1.3 (3) μg/ml
- Inhibition of α-toxin production (in words) (S. aureus [2]): inhibited α-toxin production
- IC50, α-toxin production (S. warneri): 0.6 µg/mL (≈ 1.5 µM)
- IC50, α-toxin production (S. epidermidis (51625)): 0.5 µg/mL (≈ 1.25 µM)
- IC50, α-toxin production (S. haemolyticus): 0.6 µg/mL (≈ 1.5 µM)
- Inhibition of TSST-1 (S. aureus [3]): 4.0 µg/mL

Compound: C[C@@H](O)[C@H](NC(=O)[C@H](Cc1cn(C(=O)Sc2ccccc2)c2ccccc12)NC(=O)[C@@H]1CCCN1C(=O)[C@H](CO)NC(=O)[C@H](Cc1ccc(O)cc1)NC(=O)OCC1c2ccccc2-c2ccccc21)C(=O)N[C@@H](CC(N)=O)C(=O)N[C@@H](Cc1ccccc1)C(=O)O [VIF-1, (Fmoc-Tyr)-Ser-Pro-Trp(phenylthiocarbamate)-Thr-Asn-Phe] (Fmoc-YSPW(X1)TNF-OH; C-terminus assumed)
- Inhibition of RNA III activation (RNAIII [1]): 1.5 µg/mL
- IC50, α-toxin production (S. aureus [2]): 0.6 µg/mL (≈ 0.472 µM)
- Inhibition of α-Hemolysin production (S. aureus [2]): 1.1 µg/mL
- Inhibition of α-toxin production (in words) (S. aureus [2]): inhibited α-toxin production
- IC50, α-toxin production (S. warneri): 0.1 µg/mL (≈ 0.0786 µM)
- IC50 for inhibition of hemolysin production (S. warneri): 0.10 µg/mL
- Inhibition of hemolysin production (in words) (S. warneri): potently inhibited
- % Survival at 24 hr. (S. aureus [5]; 6 mg/kg IP): 13%
- % Survival at 24 hr. (S. aureus [5]; 15 mg/kg IP): 50%
- % Survival at 24 hr. (S. aureus [5]; 20 mg/kg IP): 67%
- Number of mice that survived at 24 hours post-injection relative to vehicle (in words) (S. aureus [5]): effective to significantly increase the number of mice that survived
- % Survival at 24 hr. (S. aureus [6]; 1 mg/kg): 67%
- % Survival at 24 hr. (S. aureus [6]; 3 mg/kg): 83%
- % Survival at 24 hr. (S. aureus [6]; 15 mg/kg): 83%
- Number of mice that survived at 24 hours post-injection (in words) (S. aureus [6]): effective to significantly increase the number of mice that survived
- Lowest concentration that suppressed release of TSST-1 (S. aureus [3]): 0.2 µg/mL

Compound: CC(C)(C)OC(=O)n1cc(C[C@H](NC(=O)OCC2c3ccccc3-c3ccccc32)C(=O)O)c2ccccc21 [Reference #35, Fmoc-L-Trp(Boc)-OH]
- Inhibition of RNA III activation (RNAIII [1]): 1.4 µg/mL
- IC50, α-toxin production (S. aureus [2]): 0.8 µg/mL (≈ 1.52 µM)
- Inhibition of α-Hemolysin production (S. aureus [2]): 1.2 (13) μg/ml
- Inhibition of α-toxin production (in words) (S. aureus [2]): inhibited α-toxin production
- IC50, α-toxin production (S. warneri): 0.6 µg/mL (≈ 1.14 µM)
- IC50, α-toxin production (S. epidermidis (51625)): 0.5 µg/mL (≈ 0.95 µM)
- IC50, α-toxin production (S. haemolyticus): 0.6 µg/mL (≈ 1.14 µM)
- % Survival at 24 hr. (S. aureus [5]; 2 mg/kg IP): 25%
- % Survival at 24 hr. (S. aureus [5]; 10 mg/kg IP): 71%
- Number of mice that survived at 24 hours post-injection relative to vehicle (in words) (S. aureus [5]): effective to significantly increase the number of mice that survived
- % Survival at 24 hr. (S. aureus [6]; 0.2 mg/kg): 0%
- % Survival at 24 hr. (S. aureus [6]; 1 mg/kg): 83%
- % Survival at 24 hr. (S. aureus [6]; 2 mg/kg): 67%
- % Survival at 24 hr. (S. aureus [6]; 5 mg/kg): 83%
- Number of mice that survived at 24 hours post-injection (in words) (S. aureus [6]): effective to significantly increase the number of mice that survived
- Inhibition of TSST-1 (S. aureus [3]): 5.0 µg/mL

Compound: O=C(Nc1ccccc1C(=O)O)OCC1c2ccccc2-c2ccccc21 [Reference #4, Fmoc-2-aminobenzoic acid]
- Inhibition of RNA III activation (RNAIII [1]): 2.9 (3) μg/ml
- Inhibition of α-Hemolysin production (S. aureus [2]): 0.9 (5) μg/ml
- Inhibition of α-toxin production (in words) (S. aureus [2]): inhibited α-toxin production
- IC50, α-toxin production (S. warneri): 0.6 µg/mL (≈ 1.67 µM)
- IC50, α-toxin production (S. epidermidis (51625)): 0.5 µg/mL (≈ 1.39 µM)
- IC50, α-toxin production (S. haemolyticus): 0.7 µg/mL (≈ 1.95 µM)
- Inhibition of TSST-1 (S. aureus [3]): 2.0 µg/mL

Compound: YSPWTNF [PEP, reference compound]
- Inhibition of RNAIII induction (in words) (RNAIII [1]): no significant activity
- Inhibition of α-toxin / virulence factor production (in words) (S. aureus [2]): no significant activity
- Inhibition of induction of RNAIII (in words) (RNAIII [4]): inhibit induction of RNAIII as effectively as RIP

Compound: O=C(N[C@@H](C/C=C/c1ccccc1)C(=O)O)OCC1c2ccccc2-c2ccccc21 [Reference #124, Fmoc-L-styrylalanine]
- Inhibition of RNA III activation (RNAIII [1]): 2.9 (1) μg/ml
- Inhibition of α-Hemolysin production (S. aureus [2]): 2.0 (4) μg/ml
- Inhibition of α-toxin production (in words) (S. aureus [2]): inhibited α-toxin production
- IC50, α-toxin production (S. warneri): 0.7 µg/mL (≈ 1.69 µM)
- IC50, α-toxin production (S. epidermidis (51625)): 0.6 µg/mL (≈ 1.45 µM)
- IC50, α-toxin production (S. haemolyticus): 0.5 µg/mL (≈ 1.21 µM)
- Inhibition of TSST-1 (S. aureus [3]): 10.0 µg/mL
